Series [1] in a line: In situ rat perfusion. To be noted: 100 μM; for Ka1 absorption rate coefficient: six independent experiments. Format: in vivo.
For series [2], the system named is leukemia Jurkat-T. In kind it is cell-based, human. To be noted: read-out: IC50 Jurkat; 24 h incubation, MTT, mean ± SD (n = 4).
In series [3] the test system is lung A549. Format: cell-based, human. To be noted: read-out: IC50 A549; 24 h incubation, MTT, mean ± SD (n = 4).
Series [4] has as its system prostate DU-145. In kind it is cell-based, human. To be noted: read-out: IC50 DU-145; 24 h incubation, MTT, mean ± SD (n = 4).
Series [5] deals with pancreas MiaPaca2. Format: cell-based, human. To be noted: read-out: IC50 MiaPaca2; 24 h incubation, MTT, mean ± SD (n = 4).
Series [6] concerns triple-negative breast MDA-MB-231. In kind it is cell-based, human. To be noted: read-out: IC50 MDA-MB-231; 24 h incubation, MTT, mean ± SD (n = 4).
The test system of series [7] is non-tumorigenic human embryonic kidney cells HEK293T. In kind it is cell-based. To be noted: read-out: IC50 HEK-293T; 24 h incubation, MTT, mean ± SD (n = 4).
Series [8] deals with plasmid (pBR322) DNA. The experiment in a line: Electrophoresis mobility shift assay with plasmid DNA. To be noted: 37 °C, 20 h, metal/DNAbp ratios 0.25–2.0. In kind it is binding.
Series [9] concerns Caco-2 monolayers. The series is described as follows: Caco-2 cell monolayers transport assay. To be noted: Caco-2 monolayers, 20 μM, three independent experiments. Format: in vitro ADME. A general note: Caco-2 cells form a polarised layer with tight junctions and transporters.
A short description of series [10]: Caco-2 cell monolayers transport assay. In kind it is in vitro ADME. To be noted: human, Caco-2.

As for `CC(C)NCC(O)COc1ccc(CC(N)=O)cc1` (stereo not drawn) [atenolol], in series [1], the Peff is listed as 5.19 × 10^–6 cm/s.

In general, IC50 refers to the concentration that inhibits the measured activity by half. Take `N.N.[Cl][Pt][Cl]` [cisplatin]: the concentration for half-maximal inhibition (IC50) was determined as 10.8 ± 1.2 µM in [2]; 114 ± 9.1 µM in [3]; 112 ± 33 µM in series [4]; 76.5 ± 7.4 µM in [5]; 131 ± 18 µM in series [6]; 69 ± 6.7 µM in series [7]. Moreover, the “effect on electrophoretic mobility of plasmid forms” value in [8] was “able to both increase and decrease the mobility of the OC and the CCC forms”.

Turning to Lucifer Yellow, in series [9], the Peff is 1.90 × 10^–7 cm/s.

For orientation: Papp means the rate of passage across a membrane or cell layer, normalised by area and donor concentration. A low value points to slow passage. Consider `COCCc1ccc(OCC(O)CNC(C)C)cc1` (stereo not drawn) [metoprolol], for which the apparent permeability (Papp) at 90 min, 20 μM in [10] came to 23.2 ×10⁻⁶ cm/s. Also, in series [1], the Peff is 5.40 × 10^–5 cm/s and the “Ka1 absorption rate coefficient” value is 2.30 h^–1.

In the case of `CN/C(=N/CCSCc1nc[nH]c1C)NC#N` [cimetidine], in [10], the apparent permeability coefficient (Papp) at 90 min, 20 μM stood at 1.86 ×10⁻⁶ cm/s. In series [1], the Peff is given as 3.97 × 10^–5 cm/s and the “Ka1 absorption rate coefficient” value turned out to be 1.68 h^–1.

Values taken from publication PMC4538566 (Journal of Medicinal Chemistry, 2015).
